US4599352A, “Antineoplastic platinum (IV) complexes and compositions” (priority 1984, dated 1986)

Key:
[1] = system: IP-Implanted L1210 Leukemia; test: Dose-response against IP-implanted L1210 leukemia, IP treatment Days 1, 5 and 9, 30-day test (Table 2); format: in vivo, CD2Fl male mice
Description: (§1) Biological properties of the compounds of the present invention were determined following the protocol described in Cancer Chemotherapy Reports, Vol. 3, No. 3, 1972 which report is incorporated herein by reference.
(§2) This experiment (A8-00005 3LE31) was conducted at the Southern Research Institute, Birmingham, Ala. under the supervision of Dr. Daniel Griswold. The protocols were the same as those published previously (Geran et al., Cancer Chemotherapy Reports 3: No. 2, 1972 [Attachment 11]). 10^5 cells were implanted intraperitoneally in CD2Fl male mice on Day 0. Drug treatments were given intraperitoneally as single injections at the doses indicated on Days 1, 5 and 9 after tumor implantation. The diluent was saline except for NSC-271674 where 5% sodium bicarbonate was used. All drugs were prepared fresh on the day of injection, and all were administered in solution. Median survival times for both control and drug-treated mice were determined and expressed as a percentage (% T/C). Body weights were determined on Day 5 and expressed as a weight difference (body weight of the drug-treated animals minus that of the control animals in grams) (T-C). The diluent control animals lived a median of 8.4 days and gained 1.9 grams by Day 5 in this experiment. All animals, including Day 30 survivors, were used in the calculation of median survival times. The log10 change in tumor burden refers to the net log change in viable tumor cell population at the end of therapy (Rx) as compared to the start of therapy; e.g., a […] means that there was a […] and a 3 log change means there was a 1000-fold increase in tumor burden at the end of therapy. The tumor burden at the start of therapy was about 6.1×10^5 cells in this experiment.

IP L1210 [2] = test: Activity against IP-implanted L1210 leukemia sensitive to cisplatin, 30 day test (Table 3); format: in vivo, Female CD2Fl mice
Description: as §1
(§3) Other known mechanisms of resistance for other classes of agents, such as gene amplification or target enzyme change or amplication, also need to be explored. The experiments summarized in Table 3 were conducted at the same time against both sublines using the same drug preparations. […] These experiments were repeated in a second laboratory as documented in Table 4. However, in these experiments the animals were held for 60 rather than 30 days to evaluate whether or not long-term survivors are produced after drug treatment in a more challenging setting.
as §2
These experiments (A8-00008 3LE31 and A8-00001 3DP31) were conducted concurrently at the Southern Research Institute, Birmingham, Ala. under the supervision of Dr. Daniel Griswold. See Table 4 for experimental details. The diluent control animals bearing L1210 leukemia lived a median of 8.6 days and gained 1.3 grams by Day 5. […] Female CD2Fl mice were used for these experiments.

IP L1210 [3] = test: Activity against IP-implanted L1210 leukemia sensitive to cisplatin, 60 day test (Table 4); format: in vivo, Female CD2Fl mice
Description: as §1, §3, §2
(§4) These experiments (23-00081 3LE31 and 23-00003 3DP3l) were conducted concurrently at the Mason Research Institute, Worcester, MA under the supervision of Dr. William Cobb. See Table 4 for experimental details. The diluent control animals bearing L1210 leukemia lived a median of 8.3 days and gained 1.6 grams by Day 5. […] Female CD2Fl mice were used for these experiments.

IP L1210/Cisplatin = test: Activity against IP-implanted L1210/Cisplatin leukemia resistant to cisplatin, 60 day test (Table 4); format: in vivo, Female CD2Fl mice
Description: as §1
Other known mechanisms of resistance for other classes of agents, such as gene amplification or target enzyme change or amplication, also need to be explored. The experiments summarized in Table 3 were conducted at the same time against both sublines using the same drug preparations. […] These experiments were repeated in a second laboratory as documented in Table 4. However, in these experiments the animals were held for 60 rather than 30 days to evaluate whether or not long-term survivors are produced after drug treatment in a more challenging setting. […]
as §4

SMILES: [Cl][Pt-2]1([Cl])([Cl])([Cl])[NH2+][C@@H]2CCCC[C@H]2[NH2+]1 [trans (l), (1R,2R)-Tetrachloro-trans-1,2-cyclohexanediammine platinum (IV)]
- 30-Day Survivors/Total ([1]; 1 mg/kg/dose IP): 0/6
- Approx. Log10 Change in Tumor Burden at End of Rx ([1]; 1 mg/kg/dose IP): ~2.7 log10
- Body Weight Difference ([1]; 1 mg/kg/dose IP): -0.4 Grams
- Median % T/C ([1]; 1 mg/kg/dose IP): 134%
- 30-Day Survivors/Total ([1]; 2 mg/kg/dose IP): 0/6
- Approx. Log10 Change in Tumor Burden at End of Rx ([1]; 2 mg/kg/dose IP): ~1.7 log10
- Body Weight Difference ([1]; 2 mg/kg/dose IP): -0.9 Grams
- Median % T/C ([1]; 2 mg/kg/dose IP): 170%
- 30-Day Survivors/Total ([1]; 4 mg/kg/dose IP): 2/6
- Approx. Log10 Change in Tumor Burden at End of Rx ([1]; 4 mg/kg/dose IP): ~-2.8 log10
- Body Weight Difference ([1]; 4 mg/kg/dose IP): -1.2 Grams
- Median % T/C ([1]; 4 mg/kg/dose IP): 238%
- 30-Day Survivors/Total ([1]; 8 mg/kg/dose IP): 1/6
- Approx. Log10 Change in Tumor Burden at End of Rx ([1]; 8 mg/kg/dose IP): ~-5.7 log10
- Body Weight Difference ([1]; 8 mg/kg/dose IP): -2.5 Grams
- Median % T/C ([1]; 8 mg/kg/dose IP): 319%
- Body Weight Difference ([1]; 8 mg/kg/dose IP, listed as trans l): less than -4 Grams
- 30-Day Survivors/Total ([1]; 16 mg/kg/dose IP): 0/6
- Approx. Log10 Change in Tumor Burden at End of Rx ([1]; 16 mg/kg/dose IP): ~3.0 log10
- Body Weight Difference ([1]; 16 mg/kg/dose IP): -3.5 Grams
- Median % T/C ([1]; 16 mg/kg/dose IP): 119%
- Optimal dose (dose producing best therapeutic response) ([1]; day 1, 5 and 9 schedule): 8 mg/kg/injection
- 30 Day Survivors/Total (IP L1210 [2]; 1 mg/kg/dose): 0/6
- Approx. Log10 Change in Tumor Burden at End of RX (IP L1210 [2]; 1 mg/kg/dose): ~2.5 log10
- Median % T/C (IP L1210 [2]; 1 mg/kg/dose): 143%
- 30 Day Survivors/Total (IP L1210 [2]; 2 mg/kg/dose): 1/6
- Approx. Log10 Change in Tumor Burden at End of RX (IP L1210 [2]; 2 mg/kg/dose): ~-0.4 log10
- Median % T/C (IP L1210 [2]; 2 mg/kg/dose): 197%
- 30 Day Survivors/Total (IP L1210 [2]; 4 mg/kg/dose): 2/6
- Approx. Log10 Change in Tumor Burden at End of RX (IP L1210 [2]; 4 mg/kg/dose): ~-5.9 log10
- Median % T/C (IP L1210 [2]; 4 mg/kg/dose): 313%
- 30 Day Survivors/Total (IP L1210 [2]; 8 mg/kg/dose): 4/6
- Approx. Log10 Change in Tumor Burden at End of RX (IP L1210 [2]; 8 mg/kg/dose): ~-5.9 log10
- Median % T/C (IP L1210 [2]; 8 mg/kg/dose): 348%
- 30 Day Survivors/Total (IP L1210 [2]; 16 mg/kg/dose): 0/6
- Median % T/C (IP L1210 [2]; 16 mg/kg/dose): 93%
- 60 Day Survivors/Total (IP L1210 [3]; 1 mg/kg/dose): 0/10
- Body Weight Difference (IP L1210 [3]; 1 mg/kg/dose): -0.4 Grams
- Median % T/C (IP L1210 [3]; 1 mg/kg/dose): 146%
- 60 Day Survivors/Total (IP L1210 [3]; 2 mg/kg/dose): 2/10
- Body Weight Difference (IP L1210 [3]; 2 mg/kg/dose): -0.8 Grams
- Median % T/C (IP L1210 [3]; 2 mg/kg/dose): 216%
- 60 Day Survivors/Total (IP L1210 [3]; 4 mg/kg/dose): 0/10
- Body Weight Difference (IP L1210 [3]; 4 mg/kg/dose): -2.2 Grams
- Median % T/C (IP L1210 [3]; 4 mg/kg/dose): 208%
- 60 Day Survivors/Total (IP L1210 [3]; 8 mg/kg/dose): 1/10
- Body Weight Difference (IP L1210 [3]; 8 mg/kg/dose): -3.7 Grams
- Median % T/C (IP L1210 [3]; 8 mg/kg/dose): 228%
- 60 Day Survivors/Total (IP L1210 [3]; 16 mg/kg/dose): 0/10
- Body Weight Difference (IP L1210 [3]; 16 mg/kg/dose): -5.9 Grams
- Median % T/C (IP L1210 [3]; 16 mg/kg/dose): Toxic
- 60 Day Survivors/Total (IP L1210/Cisplatin; 1 mg/kg/dose): 0/10
- Body Weight Difference (IP L1210/Cisplatin; 1 mg/kg/dose): -1.1 Grams
- Median % T/C (IP L1210/Cisplatin; 1 mg/kg/dose): 132%
- 60 Day Survivors/Total (IP L1210/Cisplatin; 2 mg/kg/dose): 4/10
- Body Weight Difference (IP L1210/Cisplatin; 2 mg/kg/dose): -0.8 Grams
- Median % T/C (IP L1210/Cisplatin; 2 mg/kg/dose): 239%
- 60 Day Survivors/Total (IP L1210/Cisplatin; 4 mg/kg/dose): 3/8
- Body Weight Difference (IP L1210/Cisplatin; 4 mg/kg/dose): -1.7 Grams
- Median % T/C (IP L1210/Cisplatin; 4 mg/kg/dose): 376%
- 60 Day Survivors/Total (IP L1210/Cisplatin; 8 mg/kg/dose): 0/10
- Body Weight Difference (IP L1210/Cisplatin; 8 mg/kg/dose): -3.5 Grams
- Median % T/C (IP L1210/Cisplatin; 8 mg/kg/dose): 133%
- 60 Day Survivors/Total (IP L1210/Cisplatin; 16 mg/kg/dose): 0/10
- Body Weight Difference (IP L1210/Cisplatin; 16 mg/kg/dose): -7.3 Grams
- Median % T/C (IP L1210/Cisplatin; 16 mg/kg/dose): Toxic
